Experimental data taken from ChEMBL document CHEMBL1135357, “Anti-MRSA activity of alkyl gallates” (2002).
Converted amounts (≈) assume the structure as drawn.

Legend:
Assay type in all cases: functional
Staphylococcus aureus [1] = experiment: Compound was tested for antibacterial activity against MRSA ATCC 33591, expressed as minimum bactericidal concentration (MBC)
Staphylococcus aureus [2] = experiment: Compound was tested for antibacterial activity against MRSA ATCC 33591, expressed as minimum inhibitory concentration (MIC)
Bacillus subtilis = experiment: Compound was tested for antibacterial activity against Bacillus subtilis
Bacillus thuringiensis = experiment: Compound was tested for antibacterial activity against Bacillus thuringiensis
[3] = tested on: Corynebacterium ammoniagenes; experiment: Compound was tested for antibacterial activity against Brevibacterium ammoniagenes
Micrococcus luteus = experiment: Compound was tested for antibacterial activity against Micrococcus luteus
Cutibacterium acnes = experiment: Compound was tested for antibacterial activity against Propionibacterium acnes
Staphylococcus aureus [4] = experiment: Compound was tested for antibacterial activity against Staphylococcus aureus
Staphylococcus aureus [5] = experiment: Compound was tested for antibacterial activity against Staphylococcus aureus (MRSA)
Staphylococcus aureus [6] = experiment: Compound was tested for antibacterial activity against MRSA ATCC 33591, expressed as aminimum inhibitory concentration (MIC)
Streptococcus mutans = experiment: Compound was tested for antibacterial activity against Streptococcus mutans

Row | MIC (Staphylococcus aureus [2]) [µg/mL] | Structure (SMILES) | MBC (Staphylococcus aureus [1]) [µg/mL] | other results
1 | 50 (≈ 171 µM) | CCCCCCCCCCCOC(=O)c1cccc(O)c1 | 50 (≈ 171 µM) | –
2 | 50 (≈ 162 µM) | CCCCCCCCCCCOC(=O)c1cc(O)cc(O)c1 | 50 (≈ 162 µM) | –
3 | 12.5 (≈ 40.3 µM) | CCCCCCCCCCOC(=O)c1cc(O)c(O)c(O)c1 [DECYL GALLATE] | 25 (≈ 80.5 µM) | –
4 | – | CCCCCCCCCCCCOC(=O)c1cc(O)c(O)c(O)c1 [DODECYL GALLATE] | 25 (≈ 73.9 µM) | MBC (Bacillus subtilis): 25 µg/mL (≈ 73.9 µM); MIC (Bacillus subtilis): 25 µg/mL (≈ 73.9 µM); MIC (Bacillus thuringiensis): 50 µg/mL (≈ 148 µM); MBC [3]: 25 µg/mL (≈ 73.9 µM); MIC [3]: 25 µg/mL (≈ 73.9 µM); MBC (Micrococcus luteus): 25 µg/mL (≈ 73.9 µM); MIC (Micrococcus luteus): 12.5 µg/mL (≈ 36.9 µM); MBC (Cutibacterium acnes): 6.25 µg/mL (≈ 18.5 µM); MIC (Cutibacterium acnes): 6.25 µg/mL (≈ 18.5 µM); MBC (Staphylococcus aureus [4]): 25 µg/mL (≈ 73.9 µM); MIC (Staphylococcus aureus [4]): 12.5 µg/mL (≈ 36.9 µM); MBC (Staphylococcus aureus [5]): 25 µg/mL (≈ 73.9 µM); MIC (Staphylococcus aureus [5]): 12.5 µg/mL (≈ 36.9 µM); MIC (Staphylococcus aureus [6]): 12.5 µg/mL (≈ 36.9 µM); MBC (Streptococcus mutans): 100 µg/mL (≈ 295 µM); MIC (Streptococcus mutans): 100 µg/mL (≈ 295 µM)
5 | 25 (≈ 93.2 µM) | CCCCCCCOC(=O)c1cc(O)c(O)c(O)c1 [HEPTYL GALLATE] | 100 (≈ 373 µM) | –
6 | 50 (≈ 197 µM) | CCCCCCOC(=O)c1cc(O)c(O)c(O)c1 [HEXYL GALLATE] | 200 (≈ 787 µM) | –
7 | 25 (≈ 84.4 µM) | CCCCCCCCCOC(=O)c1cc(O)c(O)c(O)c1 [NONYL GALLATE] | 50 (≈ 169 µM) | –
8 | 1600 (≈ 7540 µM) | CCCOC(=O)c1cc(O)c(O)c(O)c1 [PROPYL GALLATE] | 3200 (≈ 15100 µM) | –
9 | 12.5 (≈ 38.5 µM) | CCCCCCCCCCCOC(=O)c1cc(O)c(O)c(O)c1 [UNDECYL GALLATE] | 25 (≈ 77.1 µM) | –

Row | Structure (SMILES) | MIC (Staphylococcus aureus [2]) [µg/mL] | MBC (Staphylococcus aureus [1]) [µg/mL] | other results
10 | COc1cccc(OC)c1C(=O)N[C@@H]1C(=O)N2[C@@H]1SC(C)(C)[C@@H]2C(=O)O [METHICILLIN] | 800 (≈ 2100 µM) | > 800 | –
11 | CCCCCCCCOC(=O)c1cc(O)c(O)c(O)c1 [OCTYL_GALLATE] | 25 (≈ 88.5 µM) | 50 (≈ 177 µM) | –
